{"source": "ChEMBL document CHEMBL5154871", "about": "“Non-peptidyl non-covalent cathepsin C inhibitoEEr bearing a unique thiophene-substituted pyridine: Design, structure-activity relationship and anti-inflammatory activity in vivo” (Eur J Med Chem, 2022)", "key": {"Mus musculus [1]": {"tested_on": "Mus musculus", "test": "In vivo inhibition of cathepsin C in po dosed LPS-induced ALI C57BL/6 mouse model assessed as downregulation of Cat G activity in bone marrow treated 1 hr prior to LPS challenge and measured after 48 hrs", "format": "functional, organism-based", "conditions": "dose 2-50 mg/kg, time 49.0 hrs, DDE = dose-dependent effect"}, "Mus musculus [2]": {"tested_on": "Mus musculus", "test": "In vivo inhibition of cathepsin C in po dosed LPS-induced ALI C57BL/6 mouse model assessed as downregulation of neutrophil elastase activity in bone marrow treated 1 hr prior to LPS challenge and measured after 48 hrs", "format": "functional, organism-based", "conditions": "dose 2-50 mg/kg, time 49.0 hrs, DDE = dose-dependent effect"}, "[3]": {"test": "AUC(0 to infinity) in Sprague-Dawley rat at 2 mg/kg, iv by LC-MS/MS analysis", "format": "ADME, organism-based", "set-up": "time infinity, dose 2 mg/kg, route iv", "conditions": "in vivo"}, "[4]": {"test": "AUC(last) in Sprague-Dawley rat at 2 mg/kg, iv measured after 24 hrs by LC-MS/MS analysis", "format": "ADME, organism-based", "set-up": "dose 2 mg/kg, time 24 hrs, route iv", "conditions": "in vivo"}, "Dipeptidyl peptidase 1": {"target": "Dipeptidyl peptidase 1 (Homo sapiens, UniProt P53634)", "sequence (P53634 25-134 limits assumed)": "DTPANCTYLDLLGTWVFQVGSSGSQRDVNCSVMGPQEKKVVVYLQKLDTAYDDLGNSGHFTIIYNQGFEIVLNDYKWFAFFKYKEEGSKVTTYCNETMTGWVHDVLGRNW", "sequence (P53634 231-394 limits assumed)": "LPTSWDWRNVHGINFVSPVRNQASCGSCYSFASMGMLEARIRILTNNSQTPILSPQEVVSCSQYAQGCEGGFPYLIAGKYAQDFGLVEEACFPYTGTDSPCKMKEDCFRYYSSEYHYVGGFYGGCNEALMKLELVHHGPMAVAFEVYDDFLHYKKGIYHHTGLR", "sequence (P53634 395-463 limits assumed)": "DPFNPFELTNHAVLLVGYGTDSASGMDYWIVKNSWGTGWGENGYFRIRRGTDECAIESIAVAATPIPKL", "test": "Binding affinity to Cathepsin C in human U-937 cells assessed as increase in thermal stability measured at 52 degC after 4 hrs by cellular thermal shift assay", "format": "cell-based", "conditions": "dose 0.5-10 µM"}, "[5]": {"test": "MRT in Sprague-Dawley rat at 2 mg/kg, iv measured after 24 hrs by LC-MS/MS analysis", "format": "ADME, organism-based", "conditions": "in vivo"}, "[6]": {"test": "Cmax in Sprague-Dawley rat at 10 mg/kg, po measured after 24 hrs by LC-MS/MS analysis", "format": "ADME, organism-based", "set-up": "dose 10 mg/kg, time 24 hrs, route po", "conditions": "in vivo"}, "[7]": {"test": "Acute toxicity in ICR mouse assessed as pathological changes of lungs at 1500 mg/kg, po administered as single dose measured after 7 days by H and E staining based assay", "format": "organism-based", "conditions": "in vivo, time 7 day"}, "[8]": {"test": "Cmax in Sprague-Dawley rat at 2 mg/kg, iv measured after 24 hrs by LC-MS/MS analysis", "format": "ADME, organism-based", "set-up": "time 24 hrs, dose 2 mg/kg, route iv", "conditions": "in vivo"}, "Mus musculus [9]": {"tested_on": "Mus musculus", "test": "Anti-inflammatory activity against po dosed LPS-induced ALI C57BL/6 mouse model assessed as decrease in TNF-alpha level in lungs treated 1 hr prior to LPS challenge and measured after 48 hrs by ELISA", "format": "functional, organism-based", "conditions": "dose 2-50 mg/kg, time 49.0 hrs, DDE = dose-dependent effect"}, "Mus musculus [10]": {"tested_on": "Mus musculus", "test": "Anti-inflammatory activity against po dosed LPS-induced ALI C57BL/6 mouse model assessed as increase in IL-10 level in serum treated 1 hr prior to LPS challenge and measured after 48 hrs by ELISA", "format": "functional, organism-based", "conditions": "dose 2-50 mg/kg, time 49.0 hrs, DDE = dose-dependent effect"}, "[11]": {"test": "Acute toxicity in ICR mouse assessed as pathological changes of kidney at 1500 mg/kg, po administered as single dose measured after 7 days by H and E staining based assay", "format": "organism-based", "conditions": "in vivo, time 7 day"}, "[12]": {"test": "Acute toxicity in ICR mouse assessed as body weight loss at 1500 mg/kg, po administered as single dose and measured for 7 days", "format": "organism-based", "conditions": "in vivo, time 7 day"}, "Mus musculus [13]": {"tested_on": "Mus musculus", "test": "Anti-inflammatory activity against po dosed LPS-induced ALI C57BL/6 mouse model assessed as decrease in histopatological changes of lungs treated 1 hr prior to LPS challenge and measured after 48 hrs by H and E staining based analysis", "format": "functional, organism-based", "conditions": "dose 2-50 mg/kg, time 49.0 hrs, DDE = dose-dependent effect"}, "[14]": {"target": "T1, Dipeptidyl peptidase 1 (Mus musculus) (UniProt P97821)", "T1 sequence (whole entry)": "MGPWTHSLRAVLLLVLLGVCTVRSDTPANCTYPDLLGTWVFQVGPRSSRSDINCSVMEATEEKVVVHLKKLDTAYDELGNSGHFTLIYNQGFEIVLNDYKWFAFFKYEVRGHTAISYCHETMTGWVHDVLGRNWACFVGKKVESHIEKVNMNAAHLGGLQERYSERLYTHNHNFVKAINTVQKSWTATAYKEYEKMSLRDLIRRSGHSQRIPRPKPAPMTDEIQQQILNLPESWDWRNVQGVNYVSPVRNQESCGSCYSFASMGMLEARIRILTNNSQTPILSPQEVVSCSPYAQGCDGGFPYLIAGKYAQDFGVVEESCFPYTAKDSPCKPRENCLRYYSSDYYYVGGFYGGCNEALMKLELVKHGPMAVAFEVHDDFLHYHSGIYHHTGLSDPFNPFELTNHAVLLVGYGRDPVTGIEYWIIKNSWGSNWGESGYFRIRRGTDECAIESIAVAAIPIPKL", "test": "Inhibition of Cathepsin C in C57BL/6 mouse Bone marrow cells assessed as reduction of NSPs stability by measuring stability of neutrophil elastase at 1 uM treated for 12 hrs by Western blotting analysis", "format": "cell-based", "set-up": "scale not given: the % may be the effect or the level left", "conditions": "Bone marrow cell"}, "Mus musculus [15]": {"tested_on": "Mus musculus", "test": "Anti-inflammatory activity against po dosed LPS-induced ALI C57BL/6 mouse model assessed as decrease in GM-CSF level in serum treated 1 hr prior to LPS challenge and measured after 48 hrs by ELISA", "format": "functional, organism-based", "conditions": "dose 2-50 mg/kg, time 49.0 hrs, DDE = dose-dependent effect"}, "Mus musculus [16]": {"tested_on": "Mus musculus", "test": "In vivo inhibition of cathepsin C in po dosed LPS-induced ALI C57BL/6 mouse model assessed as downregulation of PR3 activity in bone marrow treated 1 hr prior to LPS challenge and measured after 48 hrs", "format": "functional, organism-based", "conditions": "dose 2-50 mg/kg, time 49.0 hrs, DDE = dose-dependent effect"}, "Mus musculus [17]": {"tested_on": "Mus musculus", "test": "Anti-inflammatory activity against po dosed LPS-induced ALI C57BL/6 mouse model assessed as decrease in MPO activity in lungs treated 1 hr prior to LPS challenge and measured after 48 hrs", "format": "functional, organism-based", "conditions": "dose 2-50 mg/kg, time 49.0 hrs, DDE = dose-dependent effect"}, "[18]": {"test": "Oral bioavailability in Sprague-Dawley rat at 10 mg/kg measured after 24 hrs by LC-MS/MS analysis", "format": "ADME, organism-based", "conditions": "in vivo"}, "Mus musculus [19]": {"tested_on": "Mus musculus", "test": "Anti-inflammatory activity against po dosed LPS-induced ALI C57BL/6 mouse model assessed as decrease in GM-CSF level in lungs treated 1 hr prior to LPS challenge and measured after 48 hrs by ELISA", "format": "functional, organism-based", "conditions": "dose 2-50 mg/kg, time 49.0 hrs, DDE = dose-dependent effect"}, "Mus musculus [20]": {"tested_on": "Mus musculus", "test": "Anti-inflammatory activity against po dosed LPS-induced ALI C57BL/6 mouse model assessed as decrease in TNF-alpha level in serum treated 1 hr prior to LPS challenge and measured after 48 hrs by ELISA", "format": "functional, organism-based", "conditions": "dose 2-50 mg/kg, time 49.0 hrs, DDE = dose-dependent effect"}, "[21]": {"target": "T1, Dipeptidyl peptidase 1 (Mus musculus)", "test": "Inhibition of Cathepsin C in C57BL/6 mouse Bone marrow cells assessed as reduction of NSPs stability by measuring stability of neutrophil elastase at 1 uM treated for 48 hrs by Western blotting analysis", "format": "cell-based", "set-up": "scale not given: the % may be the effect or the level left", "conditions": "Bone marrow cell"}, "Mus musculus [22]": {"tested_on": "Mus musculus", "test": "Anti-inflammatory activity against po dosed LPS-induced ALI C57BL/6 mouse model assessed as increase in IL-10 level in lungs treated 1 hr prior to LPS challenge and measured after 48 hrs by ELISA", "format": "functional, organism-based", "conditions": "dose 2-50 mg/kg, time 49.0 hrs, DDE = dose-dependent effect"}, "Mus musculus [23]": {"tested_on": "Mus musculus", "test": "Anti-inflammatory activity against po dosed LPS-induced ALI C57BL/6 mouse model assessed as decrease in IL-6 level in serum treated 1 hr prior to LPS challenge and measured after 48 hrs by ELISA", "format": "functional, organism-based", "conditions": "dose 2-50 mg/kg, time 49.0 hrs, DDE = dose-dependent effect"}, "Mus musculus [24]": {"tested_on": "Mus musculus", "test": "In vivo inhibition of cathepsin C in bone marrow of po dosed LPS-induced ALI C57BL/6 mouse model treated 1 hr prior to LPS challenge and measured after 48 hrs", "format": "functional, organism-based", "conditions": "dose 2-50 mg/kg, time 49.0 hrs, DDE = dose-dependent effect"}, "[25]": {"test": "MRT in Sprague-Dawley rat at 10 mg/kg, po measured after 24 hrs by LC-MS/MS analysis", "format": "ADME, organism-based", "conditions": "in vivo"}}, "note": "Active and inactive are the calls of the source. No cut-off for these calls is given here.", "data": [{"smiles": "CC(=O)Nc1cccc(Nc2nc(Nc3ccc(-c4ccsc4)cn3)ncc2Cl)c1", "values": [{"measurement": "inhibition", "setting": "Mus musculus [1]", "value": "Dde"}, {"measurement": "inhibition", "setting": "Mus musculus [2]", "value": "Dde"}, {"measurement": "AUC", "setting": "[3]", "value": 1.12478, "unit": "µg·h/mL"}, {"measurement": "AUC(0-t) at 24 h", "setting": "[4]", "value": 1.44, "unit": "µg·h/mL"}, {"measurement": "Activity", "setting": "Dipeptidyl peptidase 1", "value": "Active"}, {"measurement": "MRT", "setting": "[5]", "value": 3.38, "unit": "h"}, {"measurement": "Cmax", "setting": "[6]", "value": 0.177, "unit": "µg/mL"}, {"measurement": "Activity", "setting": "[7]", "value": "Non-Toxic"}, {"measurement": "Cmax", "setting": "[8]", "value": 0.309, "unit": "µg/mL"}, {"measurement": "Activity", "setting": "Mus musculus [9]", "value": "Dde"}, {"measurement": "Activity", "setting": "Mus musculus [10]", "value": "Dde"}, {"measurement": "Activity", "setting": "[11]", "value": "Non-Toxic"}, {"measurement": "Activity", "setting": "[12]", "value": "Non-Toxic"}, {"measurement": "Activity", "setting": "Mus musculus [13]", "value": "Dde"}, {"measurement": "Activity", "setting": "[14]", "value": 68.3, "unit": "%"}, {"measurement": "Activity", "setting": "Mus musculus [15]", "value": "Dde"}, {"measurement": "inhibition", "setting": "Mus musculus [16]", "value": "Dde"}, {"measurement": "Activity", "setting": "Mus musculus [17]", "value": "Dde"}, {"measurement": "F", "setting": "[18]", "value": 42.07, "unit": "%"}, {"measurement": "Activity", "setting": "Mus musculus [19]", "value": "Dde"}, {"measurement": "Activity", "setting": "Mus musculus [20]", "value": "Dde"}, {"measurement": "Activity", "setting": "[21]", "value": 46.1, "unit": "%"}, {"measurement": "Activity", "setting": "Mus musculus [22]", "value": "Dde"}, {"measurement": "Activity", "setting": "Mus musculus [23]", "value": "Dde"}, {"measurement": "inhibition", "setting": "Mus musculus [24]", "value": "Dde"}, {"measurement": "MRT", "setting": "[25]", "value": 2.35, "unit": "h"}]}]}
